From publication PMC4939265, “Synthesis, Molecular Modeling, and Biological Evaluation of Novel Tetrahydro-β-Carboline Hydantoin and Tetrahydro-β-Carboline Thiohydantoin Derivatives as Phosphodiesterase 5 Inhibitors” (International Journal of Medicinal Chemistry, 2011) come the findings set out here.

Molecules are shown by their SMILES. Like-named read-outs stand apart in the source and are kept apart here.

One series has as its target T1, recombinant human PDE5 (Homo sapiens, UniProt O76074).
T1 construct: purchased BPS Biosciences, San Diego, CA
In words: IMAP fluorescence polarization phosphodiesterase assay (TAMRA-cGMP substrate). The series is classed as biochemical. The conditions noted are these: for IC50: 10 concentrations, at least two replicates per concentration, read-out: PDE5 inhibition IC50; for inhibition at 10 µM: read-out: %PDE5 inhibition at 10 μM; for PDE5 inhibition, result in words: SAR discussion. As for the experimental part:
PDE activity was measured using a modification of the IMAP fluorescence polarization phosphodiesterase assay from Molecular Devices. The assay was modified to use tetramethylrhodamine- (TAMRA-) cGMP as substrate. PDE hydrolysis of the fluorescent labeled substrate allows it to bind the IMAP binding reagent, which results in increased FP. […] The assays were performed in 96-well microtiter plates using a reaction buffer containing 10 mM Tris-HCl (pH 7.2), 10 mM MgCl2, 0.05% NaN3, and 0.1% phosphate-free BSA as the carrier. Each well contained 20 μL of recombinant enzyme (5 units//mL, BPS Biosciences, San Diego, CA) and 10 μL test agent. The reaction was initiated by the addition of 10 μL of a substrate solution containing 50 nM TAMRA-cGMP. After incubating at room temperature for 60 minutes, the reaction was terminated by adding 120 μL of binding solution. FP was measured by a Perkin Elmer Envision plate reader.
Dose response curves were analyzed using Prism 4 software (GraphPad) to calculate IC50 values using a four-parameter logistic equation. All in vitro experiments involved dose-response analysis were repeated at least twice to confirm reproducibility of IC50 values.

The mark [1] stands for this setting: screening dose 10 μM, triplicate.

`COC(=O)[C@H]1Cc2c([nH]c3ccccc23)[C@@H](c2ccc(OC)cc2OC)N1` [Compound 1, (1R, 3R) Methyl-1-(2,4-dimethoxyphenyl)-2,3,4,9-tetrahydro-1-H-pyrido[3,4-b]indole-3-carboxylate] had a melting point of 86 to 88 °C. In addition, the IC50 at recombinant human PDE5 is 2500 nM. Further, the inhibition at 10 µM on recombinant human PDE5 (setting [1]) was determined as 77%.
`COC(=O)[C@H]1Cc2c([nH]c3ccccc23)[C@H](c2ccc(OC)cc2OC)N1` [Compound 2, (1S,3R) Methyl-1-(2,4-dimethoxyphenyl)-2,3,4,9-tetrahydro-1-H-pyrido[3,4-b]indole-3-carboxylate] yielded a melting point of 146 to 147 °C. For the same molecule, the inhibition at 10 µM at recombinant human PDE5 (setting [1]) was determined as 63%.
On the same counts, the results for `COC(=O)[C@@H]1Cc2c([nH]c3ccccc23)[C@H](c2ccc(OC)cc2OC)N1` [Compound 3, (1S,3S) Methyl-1-(2,4-dimethoxyphenyl)-2,3,4,9-tetrahydro-1-H-pyrido[3,4-b]indole-3-carboxylate] are 88 to 90 °C and 55%.
Molecule `COC(=O)[C@@H]1Cc2c([nH]c3ccccc23)[C@@H](c2ccc(OC)cc2OC)N1` [Compound 4, (1R,3S) Methyl-1-(2,4-dimethoxyphenyl)-2,3,4,9-tetrahydro-1-H-pyrido[3,4-b]indole-3-carboxylate] returned a melting point of 148 to 150 °C. The IC50 on recombinant human PDE5 is 6400 nM. The inhibition at 10 µM on recombinant human PDE5 (setting [1]) stood at 75%.
`CCN1C(=O)[C@H]2Cc3c([nH]c4ccccc34)[C@@H](c3ccc(OC)cc3OC)N2C1=O` [Compound 5, (5R,11aR)-2-Ethyl-5-(2,4-dimethoxyphenyl)-5,6,11,11a-tetrahydro-1-H-imidazo[5,1-6,1]pyrido[3,4-b]indole-1,3-dione] returned a melting point of 216 to 218 °C. Moreover, on recombinant human PDE5, the IC50 amounted to 360 nM and the “PDE5 inhibition, result in words” value is “active PDE5 inhibitors”. Also, the inhibition at 10 µM on recombinant human PDE5 (setting [1]) came to 87%.
`CCN1C(=O)[C@H]2Cc3c([nH]c4ccccc34)[C@H](c3ccc(OC)cc3OC)N2C1=O` [Compound 6, (5S,11aR)-2-Ethyl-5-(2,4-dimethoxyphenyl)-5,6,11,11a-tetrahydro-1-H-imidazo[5,1-6,1]pyrido[3,4-b]indole-1,3-dione] yielded a melting point of 190 to 193 °C. Besides, at recombinant human PDE5, the IC50 was found to be 720 nM and the “PDE5 inhibition, result in words” value is listed as “active”. For the same molecule, the inhibition at 10 µM on recombinant human PDE5 (setting [1]) turned out to be 88%.
As to `CCN1C(=O)[C@@H]2Cc3c([nH]c4ccccc34)[C@H](c3ccc(OC)cc3OC)N2C1=O` [Compound 7, (5S,11aS)-2-Ethyl-5-(2,4-dimethoxyphenyl)-5,6,11,11a-tetrahydro-1-H-imidazo[5,1-6,1]pyrido[3,4-b]indole-1,3-dione], the melting point is 217 to 220 °C. For the same molecule, at recombinant human PDE5 (setting [1]), the inhibition at 10 µM was 54%.
Regarding `CCN1C(=O)[C@@H]2Cc3c([nH]c4ccccc34)[C@@H](c3ccc(OC)cc3OC)N2C1=O` [Compound 8, (5R,11aS)-2-Ethyl-5-(2,4-dimethoxyphenyl)-5,6,11,11a-tetrahydro-1-H-imidazo[5,1-6,1]pyrido[3,4-b]indole-1,3-dione], the melting point lay in the range of 192 to 195 °C. Also, at recombinant human PDE5, the IC50 is 360 nM and the “PDE5 inhibition, result in words” value is “active PDE5 inhibitors”. Moreover, the inhibition at 10 µM at recombinant human PDE5 (setting [1]) amounted to 97%.
The like results for `COc1ccc([C@@H]2c3[nH]c4ccccc4c3C[C@@H]3C(=O)N(C(C)(C)C)C(=O)N23)c(OC)c1` [Compound 9, (5R,11aR)-2-Tertiarybutyl-5-(2,4-dimethoxyphenyl)-5,6,11,11a-tetrahydro-1-H-imidazo[5,1-6,1]pyrido[3,4-b]indole-1,3-dione] were, in that order, 108 to 110 °C, 2400 nM, “active PDE5 inhibitors” and 83%.
The molecule `COc1ccc([C@H]2c3[nH]c4ccccc4c3C[C@@H]3C(=O)N(C(C)(C)C)C(=O)N23)c(OC)c1` [Compound 10, (5S,11aR)-2-Tertiarybutyl-5-(2,4-dimethoxyphenyl)-5,6,11,11a-tetrahydro-1-H-imidazo[5,1-6,1]pyrido[3,4-b]indole-1,3-dione] displayed a melting point of 191 to 193 °C. Besides, the inhibition at 10 µM on recombinant human PDE5 (setting [1]) was 68%.
`COc1ccc([C@H]2c3[nH]c4ccccc4c3C[C@H]3C(=O)N(C(C)(C)C)C(=O)N23)c(OC)c1` [Compound 11, (5S,11aS)-2-Tertiarybutyl-5-(2,4-dimethoxyphenyl)-5,6,11,11a-tetrahydro-1-H-imidazo[5,1-6,1]pyrido[3,4-b]indole-1,3-dione] had a melting point of 103 to 106 °C. Also, on recombinant human PDE5 (setting [1]), the inhibition at 10 µM was 46%.
For `COc1ccc([C@@H]2c3[nH]c4ccccc4c3C[C@H]3C(=O)N(C(C)(C)C)C(=O)N23)c(OC)c1` [Compound 12, (5R,11aS)-2-Tertiarybutyl-5-(2,4-dimethoxyphenyl)-5,6,11,11a-tetrahydro-1-H-imidazo[5,1-6,1]pyrido[3,4-b]indole-1,3-dione], the melting point was in the range of 193 to 195 °C. In addition, at recombinant human PDE5, the IC50 was 550 nM and the “PDE5 inhibition, result in words” value is reported as “active PDE5 inhibitors”. At recombinant human PDE5 (setting [1]), the inhibition at 10 µM was 87%.
Molecule `COc1ccc([C@@H]2c3[nH]c4ccccc4c3C[C@@H]3C(=O)N(c4ccc(Cl)cc4)C(=O)N23)c(OC)c1` [Compound 13, (5R,11aR)-2-(P-Chlorophenyl)-5-(2,4-dimethoxyphenyl)-5,6,11,11a-tetrahydro-1H-imidazo[5,1-6,1]pyrido[3,4-b]indole-1,3-dione] displayed a melting point of 134 to 136 °C. Moreover, the inhibition at 10 µM on recombinant human PDE5 (setting [1]) is 63%.
The like results for `COc1ccc([C@H]2c3[nH]c4ccccc4c3C[C@@H]3C(=O)N(c4ccc(Cl)cc4)C(=O)N23)c(OC)c1` [Compound 14, (5S,11aR)-2-(P-Chlorophenyl)-5-(2,4-dimethoxyphenyl)-5,6,11,11a-tetrahydro-1-H-imidazo[5,1-6,1]pyrido[3,4-b]indole-1,3-dione] were, in that order, 214 to 216 °C and 60%.
On the same counts, the results for `COc1ccc([C@H]2c3[nH]c4ccccc4c3C[C@H]3C(=O)N(c4ccc(Cl)cc4)C(=O)N23)c(OC)c1` [Compound 15, (5S,11aS)-2-(P-Chlorophenyl)-5-(2,4-dimethoxyphenyl)-5,6,11,11a-tetrahydro-1-H-imidazo[5,1-6,1]pyrido[3,4-b]indole-1,3-dione] are 135 to 138 °C and 35%.
With `COc1ccc([C@@H]2c3[nH]c4ccccc4c3C[C@H]3C(=O)N(c4ccc(Cl)cc4)C(=O)N23)c(OC)c1` [Compound 16, (5R,11aS)-2-(P-Chlorophenyl)-5-(2,4-dimethoxyphenyl)-5,6,11,11a-tetrahydro-1-H-imidazo[5,1-6,1]pyrido[3,4-b]indole-1,3-dione], the melting point is 212 to 215 °C. Besides, the inhibition at 10 µM at recombinant human PDE5 (setting [1]) was determined as 63%.
On the same counts, the results for `COc1ccc([C@@H]2c3[nH]c4ccccc4c3C[C@H]3C(=O)N(C)C(=S)N23)c(OC)c1` [Compound 17, (5R,11aS)-2-Methyl-1-oxo-5-(2,4-dimethoxyphenyl)-5,6,11,11a-tetrahydro-1H-imidazo[5,1-6,1]pyrido[3,4-b]indole-3(2H)-thione] are 188 to 191 °C and 29%.
On the same counts, the results for `COc1ccc([C@H]2c3[nH]c4ccccc4c3C[C@@H]3C(=O)N(C)C(=S)N23)c(OC)c1` [Compound 18, (5S,11aR)-2-Methyl-1-oxo-5-(2,4-dimethoxyphenyl)-5,6,11,11a-tetrahydro-1-H-imidazo[5,1-1,6]pyrido[3,4-b]indole-3(2H)-thione] are 188 to 190 °C and 23%.
On to `C=CCN1C(=O)[C@@H]2Cc3c([nH]c4ccccc34)[C@@H](c3ccc(OC)cc3OC)N2C1=S` [Compound 19, (5R,11aS)-2-Allyl-1-oxo-5-(2,4-dimethoxyphenyl)-5,6,11,11a-tetrahydro-1H-imidazo[5,1-1,6]pyrido[3,4-b]indole-3(2H)-thione], for which the melting point lay within 224 to 227 °C. For the same molecule, the IC50 at recombinant human PDE5 worked out at 560 nM. Also, the inhibition at 10 µM at recombinant human PDE5 (setting [1]) came out at 87%.
As to `C=CCN1C(=O)[C@H]2Cc3c([nH]c4ccccc34)[C@H](c3ccc(OC)cc3OC)N2C1=S` [Compound 20, (5S,11aR)-2-Allyl-1-oxo-5-(2,4-dimethoxyphenyl)-5,6,11,11a-tetrahydro-1H-imidazo[5,1-6,6,1]pyrido[3,4-b]indole-3(2H)-thione], the melting point lay in the range of 224 to 227 °C. Moreover, the inhibition at 10 µM on recombinant human PDE5 (setting [1]) came to 58%.
Turning to `CN1CC(=O)N2[C@H](c3ccc4c(c3)OCO4)c3[nH]c4ccccc4c3C[C@@H]2C1=O` [Tadalafil, tadalafil, reference compound], the inhibition at 10 µM on recombinant human PDE5 is 99%.
